In this test the target is human LPAR1 (Homo sapiens, UniProt Q92633). In words: LPAR1 intracellular calcium mobilization assay (antagonist mode, FLIPR). The format is cell-based. The settings on record: CHO-K1 EDG2 cells expressing human LPAR1; test compound 0.5 nM to 10 μM pre-incubated 60 minutes at 37° C., then LPA 18:2 at EC80 concentration (100 nM). The essentials:
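CHO-K1 cells expressing human LPAR1, Calcium 6 dye-loaded with 2.5 mM probenecid, pre-incubated 60 min at 37°C with compound (0.5 nM–10 μM), then challenged with LPA 18:2 at EC80 (100 nM). FLIPR Tetra signal amplitude (max minus min) plotted against log concentration.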
A general note: Calcium flux is commonly read through the fluorescence of an indicator in the cells.

human LPAR1, sequence (Q92633 whole entry): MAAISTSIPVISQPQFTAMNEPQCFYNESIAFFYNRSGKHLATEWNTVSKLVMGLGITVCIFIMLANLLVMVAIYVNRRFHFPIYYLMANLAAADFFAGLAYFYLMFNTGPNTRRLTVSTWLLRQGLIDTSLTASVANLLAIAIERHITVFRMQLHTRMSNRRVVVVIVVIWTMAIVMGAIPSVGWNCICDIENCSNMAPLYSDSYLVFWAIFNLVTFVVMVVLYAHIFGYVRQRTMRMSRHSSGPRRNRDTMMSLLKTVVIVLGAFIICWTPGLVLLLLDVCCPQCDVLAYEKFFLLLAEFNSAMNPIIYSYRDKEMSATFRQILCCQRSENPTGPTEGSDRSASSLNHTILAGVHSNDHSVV

With `C[C@@H](OC(=O)Nc1c(-c2ccc(C(=O)NC34CC(C#N)(C3)C4)c(Cl)n2)nnn1C)c1cccnc1Cl` [Compound 65, (R)-1-(2-chloropyridin-3-yl)ethyl (4-(6-chloro-5-((3-cyanobicyclo[1.1.1]pentan-1-yl)carbamoyl)pyridin-2-yl)-1-methyl-1H-1,2,3-triazol-5-yl)carbamate], the EC50 (as a rule, the concentration that produces a half-maximal response) was below 4.6 nM.

For `C[C@@H](OC(=O)Nc1c(-c2ccc(C(=O)NC34CC(F)(C3)C4)c(C(F)(F)F)n2)nnn1C)c1cccnc1Cl` [Compound 66, (R)-1-(2-chloropyridin-3-yl)ethyl (4-(5-((3-fluorobicyclo[1.1.1]pentan-1-yl)carbamoyl)-6-(trifluoromethyl)pyridin-2-yl)-1-methyl-1H-1,2,3-triazol-5-yl)carbamate], the concentration for a half-maximal effect (EC50) amounted to 210 nM.

Values taken from patent publication US12503454B2, “LPA receptor antagonists and uses thereof” (Gilead Sciences, Inc., priority 2021, dated 2025).
